Source: patent US12366572B2, “Activation of bioluminescence by structural complementation” (Promega Corporation, priority 2013, dated 2025)
Primed or numbered codes have the meaning given here. No end group written: not given here. *: point of attachment. Dabcyl′ = N-terminal Dabcyl quencher, CN(C)c1ccc(/N=N/c2ccc(C(=O)*)cc2)cc1

Key:
NLpoly11S [1] = assay: Binding of NLpoly11S to synthetic NLPep78/79 and N- or C-terminal HaloTag fusions (Examples 107, 108); conditions: E. coli lysates, NanoGlo + 100 uM Fz
Procedure: (§1) Fusions of NLpep78-HaloTag (78-HT) and HaloTag-NLPep78 (HT-78) were quantitated, with a GST-HaloTag® fusion (GST-HT) as a control, by labeling E. coli lysates with the HaloTag-TMR® ligand, separated by SDS-PAGE, and scanned on Typhoon. A standard curve was then created using known concentrations of GST-HT standard, and band intensities of 78-HT and HT-78 were used to determine their concentrations.
(§2) E. coli lysates containing NLpoly11S were diluted 1:107 into PBS pH 7+0.1% Prionex. Serial dilutions of 78-HT, HT-78, and synthetic NLpep78 were made in PBS pH 7+0.1% Prionex. 20 uL NLpoly11S and 20 μL of one of the NLPep were mixed and incubated at ambient temperature for 5 minutes. 40 uL NanoGlo® reagent (Promega Corporation)+100 uM Fz were added, and the samples incubates at ambient temperature for 5 min. Luminescence was measured on GlomaxMulti+ using 0.5 s integration. Data was fit to one-site, specific binding using GraphPad Prism to determine Bmax and Kd.
as §1, with “NLpep79-HaloTag (79-HT)” for “NLpep78-HaloTag (78-HT)”, “HaloTag-NLPep79 (HT-79)” for “HaloTag-NLPep78 (HT-78)”, “79-HT” for “78-HT”, “HT-79” for “HT-78”
as §2, with “79-HT, HT-79,” for “78-HT, HT-78,”, “NLpep79” for “NLpep78”

NLpoly 5P = assay: Titration of NLpoly 5P with NLpep88-HT (Example 47); format: biochemical; conditions: serial dilutions of NLpep88-HT lysate
BRD4/Histone H3.3 = BRD4/Histone H3.3 (Homo sapiens, UniProt O60885); assay: Inhibition of NLpoly11S-BRD4 / Histone H3.3-NLpep114 interaction in HEK293T cells (Example 128)
[2] = test system: circularly permuted Nluc (CP Nluc); assay: Inhibition of circularly permuted NanoLuc luciferase by dark peptides (Example 138); format: biochemical; conditions: synthetic dark peptide dose-response, NanoGlo reagent, 5 min
Procedure: Recombinant CP Nluc was prepared as a soluble fraction of an E. coli 5×-concentrated lysate (T7-promoter; overnight expression). A 10,000-fold dilution of the CP Nluc in Assay Buffer (PBS pH 7/0.01% Prionex/1 mM DTT/0.005% Tergitol) was used. Synthetically-derived dark peptides were prepared across a range of concentrations, also in the Assay Buffer. Reactions were set up using 30 μL of CP NLuc and 60 μL of Dark peptide and assayed by adding 90 μL NanoGlo® assay reagent (Promega Corporation). Luminescence was measured (5 min) on a Tecan Infinite F500 reader (100 ms integration). Three replicates were used for Dark peptide samples. Two replicates were used for buffer controls (acetic acid from peptide stocks).

NLpoly11S and NLpep114 = assay: Inhibition of NLpoly11S/NLpep114 binding by dark peptides (Examples 136, 137); format: biochemical; conditions: for Signal of dark peptide with NLpoly11S on its own: no NLpep114 (Example 137)
Procedure: In FIG. 183A, 50 nM NLpoly11S was mixed with […] NLpep114 and 37.5 μM dark peptide (DP) candidate (Q-162, A-162, K-162 or E-162). NanoGlo® assay reagent (Promega Corporation) was added and incubated for 5 minutes. Luminescence was detected. In FIG. 183B, 50 nM NLpoly11S in assay buffer (PBS pH7+0.01% Prionex+1 mM DTT+0.005% Tergitol) was mixed with 7.5 μM NLpep114 (also in assay buffer) and variable amounts of dark peptide (DP) candidates Q-162 or K-162 (also in assay buffer). NanoGlo® assay reagent (Promega Corporation) was added and incubated for 5 minutes. Luminescence was detected on a Tecan Infinite F500 reader; 100 ms integration time; 5 min time point used.
In FIG. 184A, 5 nM NLpoly11S was mixed with 500 nM NLpep114 and variable amounts of a dark peptide (DP) candidate Q-162 or A-162 (n=3). NanoGlo® assay reagent (Promega Corporation) was added and incubated for 5 minutes. Luminescence was detected.
In FIG. 184B, 5 nM NLpoly11S in assay buffer was mixed with variable amounts of dark peptide (DP) candidates Q-162 or A-162 in assay buffer (no NLpep114)(n=3). NanoGlo® assay reagent (Promega Corporation) was added and incubated for 5 minutes. Luminescence was detected.

NLpoly11S [3] = assay: Dark and quencher peptides: background signal from NLpoly11S (Example 153); format: biochemical; conditions: NLpoly11S in NanoGlo reagent, 5 min
Procedure: A purified sample of NLpoly11S was diluted into NanoGlo reagent to give a final concentration of 2 uM. Pep86 is a high affinity luminogenic peptide and was used to induce maximum signal for NLpoly11S. Pep86 was prepared at 1 nM in PBS (pH 7.2) for a working solution. Dark peptide and quencher peptides (FIG. 180) were dissolved to 1 mM (or lower) in either PBS pH 7.2 or 150 mM NH4HCO3 and added in equal volume to the NanoGlo/NLpoly11S and then samples were read on a Tecan Infinite F500 reader using a 5 min time point.

HELA cells = assay: NLpep86-tagged firefly luciferase constructs in HELA cells detected with NLpoly11S reagent or Fluc activity (Example 141); format: cell-based; conditions: 48 hours after transfection
Procedure: Validating the Use of Spontaneously Interacting NLpep86 as an Epitope Tag for Proteins Degraded by the Proteasome Experiments were conducted during development of embodiments of the present invention to validate the use of NLpep86 as a tag to monitor expression levels of proteins degraded by the proteasome. To do this, Nlpep86 was fused to firefly luciferase variants that were also fused to either one or more PEST, CL1 or ubiquitin sequences (pBC21, 22, 24-29). Each of these constructs is expected to undergo proteasome-mediated turnover to varying degrees following expression from a mutant CMV promoter (d1CMV).
The constructs pBC21, 22, 24-29 and control constructs expressing untagged firefly luciferase or untagged firefly luciferase fused to a PEST sequence (ATG082 and ATG083) were transiently transfected into HELA cells plated at 10,000 cells per well in a 96-well plate using 100 μL of DMEM+10% FBS. […] Protein expression levels were quantified in replicate wells for each construct by detecting firefly luciferase activity or by adding a detection reagent containing NLpoly11S (purified NLpoly11S added to NanoGlo®).
After a 48 hour incubation, 100 uL NanoGlo® […] reagent (90 ul of NLpoly11S in 50 ml of NanoGlo® assay reagent was added to each well and incubate for 3 minutes with shaking. Luminescence was then read on GloMax luminometer (0.5 sec/well).

[4] = test system: wt Oplophorus 157-169 peptide; assay: Relative specific activity in HEK293T lysates (Example 143); format: biochemical; conditions: averages of Vmax and Bmax normalized to NanoLuc
Procedure: Each clone was inserted into pFN21A HaloTag® CMV Flexi® Vector (Promega G2821), and lysates were prepared as follows: 3 ml HEK293T cells that have been diluted to a concentration of 200,000 cells/ml (600,000 cells total) were plated into each well of a 6-well plate and grown overnight at 37° C. in a CO2 incubator. The following day transfection complexes of each DNA were prepared by combining […] of DNA, Opti-MEM® (Life Technologies 11058-021) to a final volume of 310 μl and 20 μl of FuGENE® HD (Promega E231a). The transfection complexes were incubated for 20 minutes and then 150 μl of each complex added in duplicate to cells. The cells were grown overnight 37° C. in a CO2 incubator. The following day, the cells were washed cells with DPBS (Life Technologies 14190-144), and 1 ml fresh DPBS added. Cells were frozen to lyse and then thawed for testing. Duplicate transfection reactions lysates were combined.
In order to compare the specific activities of Nluc (full length enzyme) to wt Oplophorusl-156 and NLpoly11S in combination with wt Oplophorus 157-169 peptide (binary proteins), substrate titrations were run for all of the samples, but for the binary samples substrate titrations were run at multiple peptide concentrations. Using this format, it was possible to calculate a Vmax value for Nluc and both Vmax and Bmax values for NLpoly11S and wt Oplophorus 1-156. Three separate experiments were run using this format and Vmax and Bmax values were normalized to the Vmax of NanoLuc. Relative specific activities (calculated as averages of Vmax and Bmax) are normalized to NanoLuc.

[5] = high purity (>95%) peptides, 5 nM NLpoly11S, 500 nM NLpep114 (Example 137)

NVSGWRLFKKISN [NLPep78]
Binding affinity to NLpoly11S: synthetic vs N- or C-terminal HaloTag fusion (NLpoly11S [1]): not found to change significantly
Bmax with NLpoly11S when NLPep at the C-terminus of HaloTag (NLpoly11S [1]): reduced

NLpep88: NLpep78 with Gly as 6th residue instead of Arg, HT fusion lysate (MNVSGWGLFKKISN; also: HT fusion (lysate))
Luminescence with NLpoly 5P (NLpoly 5P): no increase in luminescence above 5P alone at lower concentrations

COc1cc2c(cc1-c1c(C)noc1C)ncc1[nH]c(=O)n([C@H](C)c3ccccn3)c12 [IBET-151]
Time within which the decline in luminescence occurs (BRD4/Histone H3.3; 0-500 nM IBET-151, time course): ≤ 3 h
Effect on luminescence of NLpoly11S-BRD4 / Histone H3.3-NLpep114 (BRD4/Histone H3.3; 0 to 10 μM, 4 h at 37° C.): dose-dependent decline in luminescence

VSGWQLFKKIS [Gln-162]
Inhibition of generation of luminescence by CP Nluc [2]: > 1 logs
Signal of dark peptide with NLpoly11S on its own (NLpoly11S and NLpep114; 5 nM NLpoly11S): produces a signal on its own in a dose-dependent manner
Inhibition of binding between NLpoly11S and NLpep114 (NLpoly11S and NLpep114; array peptides, 50 nM NLpoly11S, 7.5 μM NLpep114 (Example 136)): dose-dependent
Inhibition of binding between NLpoly11S and NLpep114 (NLpoly11S and NLpep114; [5]): dose-dependent

VTGWALFEEIL
Luminescence relative to background (NLpoly11S alone; no peptide control) (NLpoly11S [3]): induce luminescence over background

NVTGYRLFKKISN [NLPep79]
Binding affinity to NLpoly11S: synthetic vs N- or C-terminal HaloTag fusion (NLpoly11S [1]): not found to change significantly
Bmax with NLpoly11S when NLPep at the C-terminus of HaloTag (NLpoly11S [1]): reduced

BC26: MVSGWRLFKKIS-GGSGGGGSGG-Fluc-CP
Relative brightness of construct (Fluc and NLpep86 signals) (HELA cells): least bright

VTGYALFEEIL
Luminescence relative to background (NLpoly11S alone; no peptide control) (NLpoly11S [3]): induce luminescence over background

BC21: MVSGWRLFKKIS-GGSGGGGSGG-Fluc
Relative brightness of construct (Fluc and NLpep86 signals) (HELA cells): brightest

VSGWALFKKIS [Ala-162]
Inhibition of generation of luminescence by CP Nluc [2]: > 2 logs
Signal of dark peptide with NLpoly11S on its own (NLpoly11S and NLpep114; 5 nM NLpoly11S): subtle at best
Inhibition of binding between NLpoly11S and NLpep114 (NLpoly11S and NLpep114; [5]): dose-dependent
Inhibition of binding between NLpoly11S and NLpep114 (NLpoly11S and NLpep114; high purity (>95%) peptides, 5 nM NLpoly11S, 500 nM NLpep114 (Example 137), listed as Ala peptide): most potent as an inhibitor

GWALFKK
Background luminescence generated by NLpoly11S in the absence of other luminogenic peptide (NLpoly11S [3]): reduce the background luminescence generated by NLpoly11S

DAB-GWALFKK ({Dabcyl′}-GWALFKK) [Dabcyl-GWALFKK]
Background luminescence generated by NLpoly11S in the absence of other luminogenic peptide (NLpoly11S [3]): reduce the background luminescence generated by NLpoly11S

B1: NanoLuc: full-length NanoLuc luciferase (Promega), SEQ ID NO: 2157 (protein)
chain: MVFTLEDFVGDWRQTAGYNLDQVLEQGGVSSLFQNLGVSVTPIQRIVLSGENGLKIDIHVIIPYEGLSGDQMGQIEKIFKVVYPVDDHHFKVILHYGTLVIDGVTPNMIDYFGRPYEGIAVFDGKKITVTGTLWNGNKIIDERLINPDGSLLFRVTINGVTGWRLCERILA
Relative specific activity (*with wt 157-169 peptide) [4]: 1.00

B2: wt 1-156: Wild-Type Oplophorus Luciferase Residues 1-156 (protein)
chain: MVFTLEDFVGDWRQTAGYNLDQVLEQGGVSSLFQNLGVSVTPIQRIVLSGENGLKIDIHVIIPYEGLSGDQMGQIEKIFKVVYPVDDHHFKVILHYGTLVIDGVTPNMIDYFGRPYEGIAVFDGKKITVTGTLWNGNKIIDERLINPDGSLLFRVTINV
Relative specific activity (*with wt 157-169 peptide) [4]: 0.07*
